In patent publication US11912693B2, “Compounds for modulating S1P1 activity and methods of using the same” (TREVENA, INC., priority 2017, dated 2024):

Tests used:
[1] = molecular target: T1, human sphingosine-1-phosphate receptor 1 (S1P1) (Homo sapiens (Human), UniProt P21453); assay: Inhibition of cAMP production (HTRF cAMP HiRange), S1P1 CHO-K1 cells; assay type: cell-based; details: for Emax: CHO-K1, efficacy (SPAN) normalized to fingolimod, read-out: hS1P1 cAMP SPAN
How it was run: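 CHO-K1 cells stably co-expressing human S1P1 (C-terminal Prolink tag) and EA-β-arrestin2 were grown in AssayComplete Media 6 at 37° C. and 5% CO2, plated, and incubated overnight. Agonist-driven inhibition of intracellular cAMP was read by TR-FRET with the HTRF cAMP HiRange kit on a PheraStar reader. Potency is pEC50, and efficacy (SPAN) is normalized to fingolimod.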
Target sequence in this assay (P21453 whole entry, looked up): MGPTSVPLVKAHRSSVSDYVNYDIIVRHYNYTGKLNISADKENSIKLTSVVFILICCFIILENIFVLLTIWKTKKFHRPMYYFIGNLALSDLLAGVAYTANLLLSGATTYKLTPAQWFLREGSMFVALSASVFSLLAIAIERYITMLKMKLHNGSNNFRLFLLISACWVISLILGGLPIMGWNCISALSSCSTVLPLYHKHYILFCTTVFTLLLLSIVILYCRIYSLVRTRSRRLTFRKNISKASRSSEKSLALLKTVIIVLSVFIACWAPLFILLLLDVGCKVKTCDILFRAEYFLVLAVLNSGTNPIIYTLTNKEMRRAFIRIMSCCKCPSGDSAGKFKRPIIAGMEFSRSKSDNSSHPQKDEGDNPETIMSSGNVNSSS

[2] = molecular target: T1, human sphingosine-1-phosphate receptor 1 (S1P1); assay: β-Arrestin2 recruitment assay (PathHunter), S1P1 CHO-K1 cells; assay type: cell-based; details: for Emax: CHO-K1, efficacy (SPAN) normalized to fingolimod, read-out: hS1P1 B-arrestin2 SPAN
How it was run: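 Enzyme-fragment complementation read-out: agonist-driven β-arrestin2 binding to ProLink-tagged human S1P1 in stable CHO-K1 cells restores β-galactosidase, measured 1 h at room temperature after a 60 min 37° C. compound incubation. Potency as pEC50, efficacy relative to fingolimod (SPAN).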
Target sequence in this assay (P21453 whole entry, looked up): as above
Target sequence in this assay (P32121 whole entry partner, looked up): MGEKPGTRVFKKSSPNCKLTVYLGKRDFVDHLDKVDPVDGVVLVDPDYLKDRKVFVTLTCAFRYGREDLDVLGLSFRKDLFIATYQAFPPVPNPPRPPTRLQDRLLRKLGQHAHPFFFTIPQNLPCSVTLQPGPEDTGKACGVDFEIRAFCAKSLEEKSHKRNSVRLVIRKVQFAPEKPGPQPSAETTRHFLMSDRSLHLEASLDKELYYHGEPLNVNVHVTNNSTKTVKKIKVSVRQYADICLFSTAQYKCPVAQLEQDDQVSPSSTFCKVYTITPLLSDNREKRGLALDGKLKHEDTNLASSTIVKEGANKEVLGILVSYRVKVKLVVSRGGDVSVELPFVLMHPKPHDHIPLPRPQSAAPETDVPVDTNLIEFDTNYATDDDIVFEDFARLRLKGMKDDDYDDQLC

[3] = inhibition of cAMP production, S1P1 CHO-K1 cells
[4] = β-arrestin2 recruitment, S1P1 CHO-K1 cells

Emax [1] [%]	hS1P1 cAMP pEC50 [1, 3]	Emax [2] [%]	hS1P1 B-arrestin2 pEC50 [2, 4]	EC50 ([1]; inhibition of cAMP production, S1P1 CHO-K1 cells, read-out: hS1P1 cAMP pEC50 (converted)) [µM]	EC50 ([2]; β-arrestin2 recruitment, S1P1 CHO-K1 cells, read-out: hS1P1 B-arrestin2 pEC50 (converted)) [µM]	Compound
> 75	>6.5	< 75	>5	–	–	Clc1ncccc1-c1noc(-c2ccc3c(c2)nnn3C2CCCC2)n1 [Compound 198, 5-[3-(2-chloropyridin-3-yl)-1,2,4-oxadiazol-5-yl]-1-cyclopentyl-1H-1,2,3-benzotriazole]
–	<6.5	–	<5	–	–	COc1cc(-c2noc(-c3ccc4c(c3)nnn4C3CC3)n2)ccn1 [Compound 155, 1-cyclopropyl-5-[3-(2-methoxypyridin-4-yl)-1,2,4-oxadiazol-5-yl]-1H-1,2,3-benzotriazole]
–	<6.5	–	<5	–	–	CC(C)n1nnc2cc(-c3nc(-c4ccc(COc5ccccc5)cc4)no3)ccc21 [Compound 49, 5-{3-[4-(phenoxymethyl)phenyl]-1,2,4-oxadiazol-5-yl}-1-(propan-2-yl)-1H-1,2,3-benzotriazole]
< 75	–	> 75	–	> 0.316	> 10	CC(C)n1nnc2cc(-c3nc(-c4cn[nH]c4)no3)ccc21 [Compound 646, 1-(propan-2-yl)-5-[3-(1H-pyrazol-4-yl)-1,2,4-oxadiazol-5-yl]-1H-1,2,3-benzotriazole]
> 75	<6.5	> 75	<5	–	–	CC(C)Oc1ccccc1-c1noc(-c2ccc3c(cnn3C(C)C)c2)n1 [Compound 334, 3-(2-isopropoxyphenyl)-5-(1-isopropyl-1H-indazol-5-yl)-1,2,4-oxadiazole]
> 75	>6.5	> 75	>5	–	–	CCC1(CC)CC(=O)c2cc(-c3nc(-c4ccsc4)no3)ccc2N1 [Compound 554, 2,2-diethyl-6-(3-(thiophen-3-yl)-1,2,4-oxadiazol-5-yl)-2,3-dihydroquinolin-4(1H)-one]
> 75	>6.5	> 75	>5	–	–	CC(C)n1nnc2cc(-c3nc(-c4ccccc4C(F)(F)F)co3)ccc21 [Compound 432, 1-(propan-2-yl)-5-{4-[2-(trifluoromethyl)phenyl]-1,3-oxazol-2-yl}-1H-1,2,3-benzotriazole]
< 75	<6.5	< 75	<5	–	–	Cc1ncccc1-c1nc(-c2ccc3c(c2)nnn3C(C)C)no1 [Compound 194, 3-(1-isopropyl-1H-benzo[d][1,2,3]triazol-5-yl)-5-(2-methylpyridin-3-yl)-1,2,4-oxadiazole]
> 75	>6.5	> 75	>5	–	–	C=CCNc1ccc(-c2nc(-c3ccc4[nH]ccc4c3)no2)cc1C#N [Compound 208, 5-(3-(1H-indol-5-yl)-1,2,4-oxadiazol-5-yl)-2-(allylamino)benzonitrile]
–	<6.5	–	<5	–	–	CCC1(CC)CC(=O)c2cc(-c3nc(-c4ccc5c(c4)nnn5C(C)C)ns3)ccc2O1 [Compound 29, 2,2-diethyl-6-(3-(1-isopropyl-1H-benzo[d][1,2,3]triazol-5-yl)-1,2,4-thiadiazol-5-yl)chroman-4-one]
–	<6.5	–	>5	–	–	N#Cc1cc(-c2nnc(-c3ccc4[nH]c(=O)oc4c3)o2)ccc1NCCF [Compound 487, 2-[(2-fluoroethyl)amino]-5-[5-(2-oxo-2,3-dihydro-1,3-benzoxazol-6-yl)-1,3,4-oxadiazol-2-yl]benzonitrile]
–	<6.5	–	<5	–	–	O=C1CNc2ccc(-c3nc(-c4cn[nH]c4)no3)cc2N1 [Compound 645, 7-[3-(1H-pyrazol-4-yl)-1,2,4-oxadiazol-5-yl]-1,2,3,4-tetrahydroquinoxalin-2-one]
> 75	>6.5	> 75	>5	–	–	CC(C)n1ccc2cc(-c3nc(-c4ccccc4Cl)no3)ccc21 [Compound 320, 3-(2-chlorophenyl)-5-(1-isopropyl-1H-indol-5-yl)-1,2,4-oxadiazole]
–	<6.5	–	<5	–	–	O=C1CC2(CCC(F)(F)CC2)Oc2ccc(-c3nc(-c4ccncc4)no3)cc21 [Compound 217, 4′,4′-difluoro-6-[3-(pyridin-4-yl)-1,2,4-oxadiazol-5-yl]-3,4-dihydrospiro[1-benzopyran-2,1′-cyclohexane]-4-one]
< 75	<6.5	< 75	<5	–	–	FC(F)(F)c1cc(-c2noc(-c3ccc4c(c3)nnn4C3CCCC3)n2)ccc1OCc1cccnc1 [Compound 4, 1-cyclopentyl-5-{3-[4-(pyridin-3-ylmethoxy)-3-(trifluoromethyl)phenyl]-1,2,4-oxadiazol-5-yl}-1H-1,2,3-benzotriazole]
< 75	<6.5	> 75	<5	–	–	CC(C)n1nnc2cc(-c3nc4c(o3)CCCc3ccccc3-4)ccc21 [Compound 434, 4-[1-(propan-2-yl)-1H-1,2,3-benzotriazol-5-yl]-5-oxa-3-azatricyclo[8.4.0.0^2,6]tetradeca-1(14),2(6),3,10,12-pentaene]
< 75	<6.5	< 75	<5	–	–	CC(C)n1nnc2cc(-c3ncc(-c4ccccc4C(F)(F)F)s3)ccc21 [Compound 215, 2-(1-isopropyl-1H-benzo[d][1,2,3]triazol-5-yl)-5-(2-(trifluoromethyl)phenyl)thiazole]
< 75	<6.5	> 75	>5	–	–	FC(F)(F)Oc1ccccc1-c1nc(-c2ccc3c(c2)nnn3C2CCCC2)no1 [Compound 84, 3-(1-cyclopentyl-1H-benzo[d][1,2,3]triazol-5-yl)-5-(2-(trifluoromethoxy)phenyl)-1,2,4-oxadiazole]
–	>6.5	–	>5	–	–	CC(C)Nc1ccc(-c2ncc(-c3ccc4[nH]c(=O)[nH]c4c3)cn2)cc1C#N [Compound 628, 2-(isopropylamino)-5-(5-(2-oxo-2,3-dihydro-1H-benzo[d]imidazol-5-yl)pyrimidin-2-yl)benzonitrile]
–	<6.5	–	<5	–	–	c1ccc(-c2noc(-c3ccc4[nH]nnc4c3)n2)cc1 [Compound 113, 5-(3-phenyl-1,2,4-oxadiazol-5-yl)-1H-1,2,3-benzotriazole]
< 75	<6.5	> 75	<5	–	–	Cc1cc(-c2nc(-c3ccc4c(c3)nnn4C(C)C)no2)ccn1 [Compound 86, 3-(1-isopropyl-1H-benzo[d][1,2,3]triazol-5-yl)-5-(2-methylpyridin-4-yl)-1,2,4-oxadiazole]
–	<6.5	–	<5	–	–	COc1ccc(-c2nc(-c3ccc4c(c3)nnn4CC(C)(C)CO)no2)c(C)c1 [Compound 523, 3-(5-(5-(4-methoxy-2-methylphenyl)-1,2,4-oxadiazol-3-yl)-1H-benzo[d][1,2,3]triazol-1-yl)-2,2-dimethylpropan-1-ol]
> 75	>6.5	> 75	<5	–	–	CCC1(CC)CC(=O)c2cc(-c3nnc(-c4cccnc4)s3)ccc2O1 [Compound 104, 2,2-diethyl-6-(5-(pyridin-3-yl)-1,3,4-thiadiazol-2-yl)chroman-4-one]
–	>6.5	–	>5	–	–	Cc1ccccc1-c1noc(-c2cnc3c(c2)nnn3C(C)C)n1 [Compound 382, 3-(2-methylphenyl)-5-[3-(propan-2-yl)-3H-[1,2,3]triazolo[4,5-b]pyridin-6-yl]-1,2,4-oxadiazole]
–	<6.5	–	<5	–	–	CC1(C)Oc2ccc(-c3nc(-c4ccncc4)no3)cc2C1=O [Compound 480, 2,2-dimethyl-5-[3-(pyridin-4-yl)-1,2,4-oxadiazol-5-yl]-2,3-dihydro-1-benzofuran-3-one]
–	<6.5	–	<5	–	–	CCC1(CC)CC(=O)c2cc(-c3ncc(-c4cccnc4)cn3)ccc2O1 [Compound 509, 2,2-diethyl-6-(5-(pyridin-3-yl)pyrimidin-2-yl)chroman-4-one]
> 75	>6.5	> 75	>5	–	–	CC(C)n1ncc2cc(-c3nc(-c4ccccc4Cl)no3)ccc21 [Compound 330, 3-(2-chlorophenyl)-5-(1-isopropyl-1H-indazol-5-yl)-1,2,4-oxadiazole]
< 75	<6.5	< 75	<5	–	–	Clc1ccc(-c2noc(-c3ccc4c(c3)nnn4C3CCOCC3)n2)s1 [Compound 82, 5-[3-(5-chlorothiophen-2-yl)-1,2,4-oxadiazol-5-yl]-1-(oxan-4-yl)-1H-1,2,3-benzotriazole]
–	<6.5	–	<5	–	–	CCC1(CC)CC(=O)c2cc(-c3nc(-c4ccc(S(=O)(=O)N(C)C)cc4)no3)ccc2O1 [Compound 30, 4-(5-(2,2-diethyl-4-oxochroman-6-yl)-1,2,4-oxadiazol-3-yl)-N,N-dimethylbenzenesulfonamide]
